The text below walks through data of US11248024B2, “Noxa-derived, cell death-inducing peptide eMTD” (INDUSTRY-ACADEMIC COOPERATION FOUNDATION, CHOSUN UNIVERSITY, priority 2019, dated 2022).

For series [1], the system named is HeLa. The series can be described thus: MTS assay, relative cell viability, HeLa. In kind it is cell-based, human. The note with it: 10 μM, Table 4. On the technique in general: Tetrazolium assays rely on reduction of a dye to a coloured formazan, in cell work by metabolically active cells.
For series [2], the system named is HeLa cells. In words: Intracellular calcium level, Fluo-4, confocal microscope. It is filed as cell-based, human. The note with it: Fluo-4, 20 μM (FIG. 4). As to the method: In order to examine the mechanism in which the peptide eMTD (SEQ ID NO: 1) induces cell death in cancer cell lines, a change in intracellular calcium level, which is known as an important factor for cell death, was observed using the calcium indicator Fluo-4 under a confocal microscope (Leica).
In brief, HeLa cells were grown to about 70% confluency in a Lab-Tek chamber glass a day before the experiment. Immediately before the experiment, of the calcium indicator Fluo-4 was diluted to a concentration of 5 in HBSS. HeLa cells were incubated with the dilution for 10 min in an incubator and then treated with the peptide eMTDΔ4 (SEQ ID NO: 2).
(Calcium flux is commonly read through the fluorescence of an indicator in the cells.)

Series [3] concerns HeLa cells. The series can be described thus: Microscopic observation of morphological change in cells. In kind it is cell-based, human. To be noted: 20 μM, 3 min. The procedure: In order to observe morphological changes in cells in detail, the cells were incubated with 20 μM of the peptide eMTDΔ4 (SEQ ID NO: 2) and observed with the aid of a microscope (Leica). The results are depicted in FIG. 2.

The test system of series [4] is CT26. In words: MTS assay, relative cell viability, CT26. In kind it is cell-based, murine. The procedure: (§1) Individual cell lines (HeLa, CT26, and B16F10) were purchased from the Korean Cell Line Bank. Dulbecco's modified Eagle's medium (DMEM), trypsin-EDTA, fetal bovine serum (FBS), and Hank's balanced salt solution (HBSS) were products from Gibco (Thermo Fisher).
(§2) Each of the cell lines was cultured in DMEM supplemented with 10% FBS in an incubator maintained at 37° C. and 5% 002.
Examination was made to see whether the peptide has the activity of inducing cell death in other cancer cell lines. […]

Series [5] can be described thus: Two-step assay, damage on lipid membrane of liposomes (TbCl3/DPA fluorescence). In kind it is biochemical. The note with it: for Relative Fluorescence Intensity: liposomes, excitation 276 nm, read at 490 nm. As to the method: In brief, DOPS, DOPE, and DOPC (Avanti Polar Lipids) were dissolved at the ratio of 2:4:3 in chloroform, followed by vaporization. The residue was again dissolved at the concentration of 2 mg/mL in TbCl3 buffer (15 mM TbCl3, 50 mM sodium citrate, 20 mM HEPES, 150 mM NaCl, pH 7.4). The lipid mixture was extruded by Mini extruder (Avanti Polar Lipids) with a 400 nm to prepare liposomes which were washed with washing buffer (150 mM NaCl, 20 mM HEPES, pH 7.4) and then resuspended in an assay buffer (50 DPA, […], 20 mM HEPES, pH 7.4). The suspension was plated into 96-well plates and treated with 0, 10, or 25 μM of eMTD (SEQ ID NO: 1) or eMTDΔ4 (SEQ ID NO: 2). After stimulation with 276 nm laser, fluorescence was read at 490 nm.

For series [6], the system named is B16F10. In words: MTS assay, relative cell viability, B16F10. In kind it is cell-based, murine. The procedure: as §1, §2
Examination was made to see whether the peptide has the activity of inducing cell death in other cancer cell lines. In this regard, the cancer cell lines HeLa, CT26, and B16F10 were treated with eMTDΔ4 (SEQ ID NO: 2) at concentrations of 0, 20, and 40 μM.

The subject of series [7] is HeLa cells. In words: Mitochondrial PTP opening, calcein AM and cobalt ions. The note with it: calcein AM 1 μM and cobalt ions 2 mM. In kind it is cell-based, human. The procedure:
Mitochondria are known to open permeability transition pores (PTP) to allow cytosolic calcium influx. The observation that eMTDΔ4 (SEQ ID NO: 2) migrates to mitochondria and induces cytosolic calcium influx led to investigating the association of the action of eMTDΔ4 (SEQ ID NO: 2) with PTP. To this end, PTP opening was monitored using calcein AM and cobalt ions.
In brief, HeLa cells were grown on a Lab-Tek chamber glass slide one day before the experiment. Immediately before the experiment, the cells were stained with 1 μM of calcein AM and 2 mM of cobalt ions for 20 min and then with 0.1 μM of MitoTracker Red for 2 min. When PTP is opened, mitochondrial calcein AM meets cobalt ions so that the fluorescence of calcein AM is quenched.

Series [8] concerns HeLa cells. In words: Mitochondrial ROS generation, MitoSox, confocal. The note with it: MitoSox 5 μM, 10 min, 20 μM peptide (FIG. 8). It is filed as cell-based, human. The procedure: In brief, HeLa cells were grown to 70% confluency on a Lab-Tek chamber glass slide one day before the experiment. The cells were stained for 10 min with 5 μM of the mitochondrial ROS indicator MitoSox (Invitrogen) in order to visualize ROS generation. Then, the cells were incubated with eMTDΔ4 (SEQ ID NO: 2) for 10 min during which confocal micrographic images were taken to monitor cell morphologies and ROS generation.

Series [9] has as its system mitochondria isolated from livers of BalB/C mice. In words: Mitochondrial swelling, absorbance at 540 nm / TEM. It is filed as biochemical. The note with it: for Mitochondrial swelling, relative absorbance at 540 nm: peptides 25 μM, Ca2+ 200 μM, CsA 20 μM. As to the method:
First, livers excised from 6-week-old BalB/C mice were immersed in buffer (250 mM mannitol, […], 5 mM HEPES, pH 7.4, 0.1 mM PMSF and 4 rotenone) and completely homogenized using a Teflon Potter-Elvehjem grinder (Sigma). The ground liver was centrifuged at 1000×g for 10 min at 4° C. and the supernatants were centrifuged at 10,000×g for 10 min at 4° C. The pellets thus obtained were suspended in a regeneration buffer (250 mM sucrose, 10 mM HEPES, pH 7.4, 5 mM sodium succinate, 2 mM potassium phosphate, 0.1 mM PMSF, 25 μM EGTA, and 4 rotenone).
The mitochondria thus obtained were treated with 25 μM of eMTD (SEQ ID NO: 1) or eMTDΔ4 (SEQ ID NO: 2), followed by reading absorbance at 540 nm to determine mitochondrial swelling.

Ends that are not written are not given here.

Turning to KLNFRQKLLNLISKLF [eMTDΔ4], the “Viability (%)” value in [1] was found to be 47%; in series [4] (CT26, 10 μM), 69%; in series [4] (CT26, 20 μM), 21%; in [6] (B16F10, 10 μM), 68%; in series [6] (B16F10, 20 μM), 33%. Moreover, the “change in intracellular calcium level” value in series [2] is given as “calcium influx into the cytosols thereof within less than one min”. In series [3], the “morphological change in cells” value was “most of the cells were observed to undergo necrosis with the consequent rupture of cell membranes after 3 min”. Besides, the “induction of cell death (in words)” value in [4] (CT26, FIG. 3 and Table 4) is reported as “induce cell death”; in [6] (B16F10, FIG. 3 and Table 4), “induce cell death”. Further, in series [5] (FIGS. 10A to 10C and Table 6), the “liposome lipid membrane damage (in words)” value was “higher fluorescence intensity was detected”. The “Relative Fluorescence Intensity” value in series [5] (10 μM) came to 25%; in series [5] (25 μM), 51%. Further, the “mitochondrial PTP opening (calcein AM fluorescence)” value in series [7] is “fluorescence of mitochondrial calcein AM was quenched”. Moreover, the “mitochondrial ROS level” value in [8] is “abruptly increased in ROS level just after the cell membrane bubbling”. For the same sequence, the “mitochondrial swelling (in words)” value in series [9] (25 μM, absorbance 540 nm and TEM, FIGS. 6A and 6B) is given as “induce mitochondrial swelling”. The “Mitochondrial swelling, relative absorbance at 540 nm” value is given as 100% in series [9] (Minute 0); 79% in series [9] (Minute 10); 74% in [9] (Minute 20); 70% in series [9] (Minute 30); 68% in series [9] (Minute 40); 66% in [9] (Minute 50). Moreover, the “Mitochondrial swelling, relative absorbance at 540 nm” value in series [9] (Minute 60) was determined as 65%.
